Test results: patent publication US7176164B2, “1,3-selenazolin derivatives and process for preparing the same” (Gifu University, priority 2001, dated 2007)

What was measured:
[1] = system: human HT-1080 fibrosarcoma cells; experiment: growth inhibitory action against human HT-1080 fibrosarcoma cells (crystal violet method); format: cell-based; conditions: HT-1080 cells; for IC50: Homo sapiens, 24 hours culture with test drug, DMEM/F12 with 0.1% bovine serum albumin; for growth inhibitory action on HT-1080 fibrosarcoma cells (in words): 24 hours, summary of Table 1
Protocol: The growth inhibitory action of the selenazolin derivatives of chemical formulas 4 through 12 against human HT-1080 fibrosarcoma cells was investigated. HT-1080 fibrosarcoma cells growing in Eagle's Minimum Essential Medium (EMEM) containing 10% fetal calf serum within an incubator having an atmosphere of 5% CO2 and 95% air maintained at a temperature of 37 degrees Celsius were inoculated into a 96-well plate at the rate of 1×10^4 cells/well. After 48 hours, the medium was replaced with Dulbecco's Modified Eagle's Medium (DMEM)/F12 medium containing 0.1% bovine serum albumin, and the test drugs at each concentration (0.1 μM, 100 μM) were added, followed by culturing for 24 hours. Growth inhibitory action on human HT-1080 fibrosarcoma cells was determined from the staining density following staining using the crystal violet method.

[2] = system: protein kinases; experiment: simultaneous detection of the activity of a plurality of protein kinases on a single gel (lysate of v-src transformed NIH3T3 cells, labeled ATP, SDS-PAGE and autoradiography); format: biochemical; conditions: supernatant of v-src transformed NIH3T3 cells; relative to rottlerin, typically used as a protein kinase inhibitor
Protocol: Action relative to a plurality of protein kinases was investigated in accordance with the method for simultaneous detection of the activity of a plurality of protein kinases on a single gel as described in Anal. Biochem. 212:106–110, 1993.
More specifically, NIH3T3 cells transformed with v-src were disintegrated with a hypotonic buffer and denucleated by gentle centrifugation. Various types of […] (including 1 μM PMA (phorbolmyristate acetate), 20 μM cyclic adenosine-3′,5′-monophosphate (cAMP)) were then added to the centrifuged supernatant. Moreover, 3-isopropyl-2-isopropylimino-1,3-selenazolidin-4-one of chemical formula 4 and labeled adenosine triphosphate (ATP) were added and the mixture was allowed to react. After stopping the reaction, the phosphorylated protein was analyzed by SDS-PAGE and autoradiography.

Compound	IC50 [1] [µM]	inhibitory activity compared with rottlerin [2] [times]	growth inhibitory action on HT-1080 fibrosarcoma cells (in words) [1]
Cc1ccc(N=C2[Se]CC(=O)N2c2ccc(C)cc2)cc1 [Chemical Formula 11, 3-p-tolyl-2-p-tolylimino-1,3-selenazolidin-4-one]	> 100		
CC(C)N=C1[Se]CC(=O)N1C(C)C [Chemical Formula 4, 3-isopropyl-2-isopropylimino-1,3-selenazolidin-4-one]	3.2	≥ 20	potent growth inhibitory action
O=C1C[Se]C(=NC2CCCCC2)N1C1CCCCC1 [Chemical Formula 5, 3-cyclohexyl-2-cyclohexylimino-1,3-selenazolidin-4-one]	> 100		
CC(C)N=C1[Se]C(C)(C)C(=O)N1C(C)C [Chemical Formula 8, 3-isopropyl-2-isopropylimino-5,5-dimethyl-1,3-selenazolidin-4-one]	98		
Cc1ccccc1N=C1[Se]CC(=O)N1c1ccccc1C [Chemical Formula 12, 3-o-tolyl-2-o-tolylimino-1,3-selenazolidin-4-one]	75		
CC(C)N=C1[Se]C(c2ccccc2)C(=O)N1C(C)C (stereo not shown) [Chemical Formula 9, 3-isopropyl-2-isopropylimino-5-phenyl-1,3-selenazolidin-4-one]	> 100		
CCC1[Se]C(=NC(C)C)N(C(C)C)C1=O (stereo not shown) [Chemical Formula 7, 3-isopropyl-2-isopropylimino-5-ethyl-1,3-selenazolidin-4-one]	2.5		potent growth inhibitory action
CC(C)(C)N=C1[Se]CC(=O)N1C(C)(C)C [Chemical Formula 10, 3-t-butyl-2-t-butylimino-1,3-selenazolidin-4-one]	4.5		potent growth inhibitory action
CC(C)N=C1[Se]C(C)C(=O)N1C(C)C (stereo not shown) [Chemical Formula 6, 3-isopropyl-2-isopropylimino-5-methyl-1,3-selenazolidin-4-one]	89		
